Columns and labels:
barnyardgrass [1] = assay: Test A pre-/postemergence herbicide test; type: in vivo, Echinochloa crus-galli
Procedure, shortened: (§1)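 Visual injury rating on a 0–100 scale (0 no effect, 100 complete control) versus untreated controls, about ten days after treatment in greenhouse. Pre: directed soil spray onto seeded sandy loam. Post: spray to runoff on plants 2–10 cm tall at one- to two-leaf stage.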

large crabgrass = assay: Test A pre-/postemergence herbicide test; type: in vivo, Digitaria sanguinalis
Procedure, shortened: as §1

giant foxtail = assay: Test A pre-/postemergence herbicide test; type: in vivo, Setaria faberi
Procedure, shortened: as §1

morningglory = assay: Test A pre-/postemergence herbicide test; type: in vivo, Ipomoea spp.
Procedure, shortened: as §1

redroot pigweed = assay: Test A pre-/postemergence herbicide test; type: in vivo, Amaranthus retroflexus
Procedure, shortened: as §1

velvetleaf = assay: Test A pre-/postemergence herbicide test; type: in vivo, Abutilon theophrasti
Procedure, shortened: as §1

rice = assay: Test B flooded paddy test; type: in vivo, Oryza sativa; details: scale 0 to 100 (0 no effect, 100 complete control)
Procedure, shortened: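 After treating 2-leaf paddy plants or 2–18 cm postemergence plants (1 to 4 leaves) with formulated chemical, researchers kept them in a greenhouse for 13–15 days. Effects were judged visually versus controls: 0 indicates none, 100 total control.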

[2] = test system: small flower umbrella sedge; assay: Test B flooded paddy test; type: in vivo, Cyperus difformis; details: scale 0 to 100 (0 no effect, 100 complete control)
Procedure, shortened: (§2)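 Formulated test chemicals went onto postemergence plants measuring 2 to 18 cm, at one to four leaves. For the paddy assay, species had reached two leaves. Scoring took place 13–15 days later by eye, relative to untreated plants, using 0 for no effect up to 100 for full control.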

ducksalad = assay: Test B flooded paddy test; type: in vivo, Heteranthera limosa; details: scale 0 to 100 (0 no effect, 100 complete control)
Procedure, shortened: as §2

barnyardgrass [3] = assay: Test B flooded paddy test; type: in vivo, Echinochloa crus-galli; details: scale 0 to 100 (0 no effect, 100 complete control)
Procedure, shortened: as §2

[4] = Postemergence, 125 g ai/ha, 0 to 100 scale, 0 no effect, 100 complete control
[5] = Postemergence, 500 g ai/ha, 0 to 100 scale, 0 no effect, 100 complete control
[6] = preemergence, 125 g ai/ha, visual injury, 0 to 100 scale (0 no effect, 100 complete control)
[7] = preemergence, 500 g ai/ha, visual injury, 0 to 100 scale (0 no effect, 100 complete control)

Row | SMILES | Barnyardgrass plant response rating (barnyardgrass [1]; [4]) | Barnyardgrass plant response rating (barnyardgrass [1]; [5]) | Barnyardgrass plant response rating (barnyardgrass [1]; [6]) | Barnyardgrass plant response rating (barnyardgrass [1]; [7]) | Crabgrass, Large plant response rating (large crabgrass; [4]) | Crabgrass, Large plant response rating (large crabgrass; [5]) | Crabgrass, Large plant response rating (large crabgrass; [6]) | Crabgrass, Large plant response rating (large crabgrass; [7]) | Foxtail, Giant plant response rating (giant foxtail; [4]) | Foxtail, Giant plant response rating (giant foxtail; [5]) | Foxtail, Giant plant response rating (giant foxtail; [6]) | Foxtail, Giant plant response rating (giant foxtail; [7]) | Morningglory plant response rating (morningglory; [4]) | Morningglory plant response rating (morningglory; [5]) | Morningglory plant response rating (morningglory; [6]) | Morningglory plant response rating (morningglory; [7]) | Pigweed plant response rating (redroot pigweed; [4]) | Pigweed plant response rating (redroot pigweed; [5]) | Pigweed plant response rating (redroot pigweed; [6]) | Pigweed plant response rating (redroot pigweed; [7]) | also measured
1 | CCn1nc(C(C)(C)C)nc1C(=O)Nc1cccc(OC(F)(F)F)c1 [Compound 449] | 20 | 35 | 45 | 90 | 20 | 30 | 35 | 80 | 20 | 50 | 60 | 90 | 5 | 15 | 0 | 5 | 20 | 40 | 0 | 50 | Velvetleaf plant response rating (velvetleaf; [4]): 10; Velvetleaf plant response rating (velvetleaf; [5]): 20; Velvetleaf plant response rating (velvetleaf; [6]): 0; Velvetleaf plant response rating (velvetleaf; [7]): 10; Rice plant response rating (rice; 125 g ai/ha): 10; Rice plant response rating (rice; 500 g ai/ha): 50; Sedge, Umbrella plant response rating ([2]; 125 g ai/ha): 30; Sedge, Umbrella plant response rating ([2]; 500 g ai/ha): 80; Ducksalad plant response rating (ducksalad; 125 g ai/ha): 20; Ducksalad plant response rating (ducksalad; 500 g ai/ha): 70; Barnyardgrass plant response rating (barnyardgrass [3]; 125 g ai/ha): 0; Barnyardgrass plant response rating (barnyardgrass [3]; 500 g ai/ha): 30
2 | CCc1nn(C(C)(C)C)cc1C(=O)Nc1cc(C(=S)N(C)C)ccc1F [Compound 454] | 40 | 80 | 70 | 85 | 10 | 70 | 50 | 85 | 20 | 70 | 10 | 85 | 10 | 50 | 0 | 20 | 40 | 70 | 20 | 90 | Velvetleaf plant response rating (velvetleaf; [4]): 50; Velvetleaf plant response rating (velvetleaf; [5]): 70; Velvetleaf plant response rating (velvetleaf; [6]): 0; Velvetleaf plant response rating (velvetleaf; [7]): 20; Rice plant response rating (rice; 125 g ai/ha): 60; Rice plant response rating (rice; 500 g ai/ha): 80; Sedge, Umbrella plant response rating ([2]; 125 g ai/ha): 60; Sedge, Umbrella plant response rating ([2]; 500 g ai/ha): 70; Ducksalad plant response rating (ducksalad; 125 g ai/ha): 50; Ducksalad plant response rating (ducksalad; 500 g ai/ha): 70; Barnyardgrass plant response rating (barnyardgrass [3]; 125 g ai/ha): 50; Barnyardgrass plant response rating (barnyardgrass [3]; 500 g ai/ha): 90

Reference: patent US20060069132A1, “Azolecarboxamide herbicides” (priority 2004, published 2006)
